# In paper PMC11748363, “Antimicrobial and Antiproliferative Properties of 2‐Phenyl‐N‐(Pyridin‐2‐yl)acetamides” (Chemical Biology & Drug Design, 2025):
# Read-outs that look alike come from different tables or passages of the source.
# Legend:
# [1] = test system: Staphylococcus aureus CCM 4223, ATCC 29213; assay: Antibacterial microdilution broth MIC, SA; assay type: cell-based; conditions: Staphylococcus aureus
# [2] = test system: Escherichia coli CCM 3954, ATCC 25922; assay: Antibacterial microdilution broth MIC, EC; assay type: cell-based
# [3] = test system: Enterococcus faecalis CCM 4224, ATCC 29212; assay: Antibacterial microdilution broth MIC, EF; assay type: cell-based
# panel of bacteria = assay: Antibacterial screening, whole panel; assay type: cell-based; conditions: whole bacterial panel
# [4] = test system: Candida tropicalis CCM 8264, ATCC 750; assay: Antifungal microdilution broth MIC, CT
# HepG2 cell line = assay: Cytotoxicity CellTiter 96, HepG2; assay type: cell-based, human; conditions: Homo sapiens, HepG2, 24 h, 24 h incubation; ^c compound precipitated in the testing medium; ^d over the limit of tested concentrations
# [5] = test system: Trichophyton interdigitale CCM 8377, ATCC 9533; assay: Antifungal microdilution broth MIC, TI; conditions: Trichophyton interdigitale
# [6] = test system: Candida albicans CCM 8320, ATCC 24433; assay: Antifungal microdilution broth MIC, CA
# [7] = test system: Mycobacterium tuberculosis H37Rv; assay: Microplate Alamar Blue Assay MIC, Mtb H37Rv; assay type: cell-based; conditions: Mycobacterium tuberculosis, H37RV
# [8] = test system: Lichtheimia corymbifera CCM 8077; assay: Antifungal microdilution broth MIC, LC
# panel of fungi = assay: Antifungal screening, whole panel; assay type: cell-based; conditions: whole fungal panel
# Procedure: The antifungal activity was evaluated by
# spectrophotometric visual detection** spectrophotometric detection**
# Candida tropicalis 1 1 2 >16
# Aspergillus fumigatus 4 4 0.25 1
# Aspergillus flavus CCM 4 4 2 >16
# interdigitale CCM 1 1 1 >16
# control. […] Measured on a […]
# [9] = test system: M. kansasii CNCTC My 235/80; assay: Microplate Alamar Blue Assay MIC, M. kansasii; assay type: cell-based; conditions: Mycobacterium kansasii
# [10] = test system: Acinetobacter baumannii DSM 30007, ATCC 19606; assay: Antibacterial microdilution broth MIC, ACI; assay type: cell-based
# [11] = test system: Staphylococcus aureus subsp. aureus CCM 4750, ATCC 43300 (MRSA); assay: Antibacterial microdilution broth MIC, MRSA; assay type: cell-based; conditions: Staphylococcus aureus
# [12] = test system: Mycolicibacterium smegmatis DSM 43465; assay: Antimycobacterial microdilution broth MIC (resazurin), M. smegmatis; assay type: cell-based; conditions: DSM43465, read-out: MIC M. smegmatis
# [13] = test system: M. avium ssp. avium CNCTC My 80/72; assay: Microplate Alamar Blue Assay MIC, M. avium; assay type: cell-based
# [14] = test system: Klebsiella pneumoniae CCM 4415, ATCC 10031; assay: Antibacterial microdilution broth MIC, KP
# [15] = test system: Mycobacterium tuberculosis H37Ra; assay: Antimycobacterial microdilution broth MIC (resazurin), Mtb H37Ra; assay type: cell-based; conditions: for MIC: Mycobacterium tuberculosis, H37RA, read-out: MIC Mtb H37Ra
# [16] = test system: Staphylococcus epidermidis CCM 4418, ATCC 12228; assay: Antibacterial microdilution broth MIC, SE; assay type: cell-based
# [17] = test system: Candida parapsilosis CCM 8260, ATCC 22019; assay: Antifungal microdilution broth MIC, CP; conditions: Lodderomyces parapsilosis
# [18] = test system: Candida krusei CCM 8271, ATCC 6258; assay: Antifungal microdilution broth MIC, CK; conditions: Pichia kudriavzevii
# [19] = test system: Aspergillus fumigatus ATCC 204305; assay: Antifungal microdilution broth MIC, AF
# [20] = test system: Mycolicibacterium aurum DSM 43999; assay: Antimycobacterial microdilution broth MIC (resazurin), M. aurum; assay type: cell-based; conditions: DSM43999, read-out: MIC M. aurum
# [21] = test system: Aspergillus flavus CCM 8363; assay: Antifungal microdilution broth MIC, AFla
# [22] = test system: Pseudomonas aeruginosa CCM 3955, ATCC 27853; assay: Antibacterial microdilution broth MIC, PA; assay type: cell-based
compound,measurement,setting,value
O=C(Cc1ccc(C(F)(F)F)cc1)Nc1cccc(Cl)n1 [Compound 30],MIC,"[1]; 24 h, read-out: MIC SA 24h",> 500 µM
same,MIC,"[1]; 48 h, read-out: MIC SA 48h",> 500 µM
same,MIC,"[2]; 24 h, read-out: MIC EC 24h",> 500 µM
same,MIC,"[2]; 48 h, read-out: MIC EC 48h",> 500 µM
same,MIC,"[3]; 24 h, read-out: MIC EF 24h",> 500 µM
same,MIC,"[3]; 48 h, read-out: MIC EF 48h",> 500 µM
same,Antibacterial activity,panel of bacteria,None
same,MIC,"[4]; 24 h, read-out: MIC CT 24h",> 500 µM
same,MIC,"[4]; 48 h, read-out: MIC CT 48h",> 500 µM
same,IC50,HepG2 cell line,92.6 µM
same,MIC,"[5]; 72 h, read-out: MIC TI 72h",500 µM
same,MIC,"[5]; 120 h, read-out: MIC TI 120h",500 µM
same,MIC,"[6]; 24 h, read-out: MIC CA 24h",> 500 µM
same,MIC,"[6]; 48 h, read-out: MIC CA 48h",> 500 µM
same,MIC,[7],6.25 µg/mL
same,MIC,"[8]; CCM8077, 24 h, read-out: MIC LC 24h",> 500 µM
same,MIC,"[8]; CCM8077, 48 h, read-out: MIC LC 48h",> 500 µM
same,Antifungal activity,panel of fungi,None
same,MIC,[9],> 100 µg/mL
same,MIC,"[10]; 24 h, read-out: MIC ACI 24h",> 500 µM
same,MIC,"[10]; 48 h, read-out: MIC ACI 48h",> 500 µM
same,MIC,"[11]; 24 h, read-out: MIC MRSA 24h",> 500 µM
same,MIC,"[11]; 48 h, read-out: MIC MRSA 48h",> 500 µM
same,MIC,[12],> 500 µg/mL
same,MIC M. avium,[13],active
same,MIC,[13]; Mycobacterium avium,6.25 µg/mL
same,MIC KP 24h,[14]; 24h,> 500 µmol/L
same,MIC KP 48h,[14]; 48h,> 500 µmol/L
same,MIC,[15]; Calculated from MIC (μg/mL),24.8 µM
same,MIC,[15],7.81 µg/mL
same,SI (selectivity index),"[15]; SI = HepG2 IC50 (μM)/MIC MtbH37Ra (μM), calculated for compounds with MIC ≤ 31.25 μg/mL",3.7
same,MIC,"[16]; 24 h, read-out: MIC SE 24h",> 500 µM
same,MIC,"[16]; 48 h, read-out: MIC SE 48h",> 500 µM
same,MIC,"[17]; 24 h, read-out: MIC CP 24h",> 500 µM
same,MIC,"[17]; 48 h, read-out: MIC CP 48h",> 500 µM
same,MIC,"[18]; 24 h, read-out: MIC CK 24h",> 500 µM
same,MIC,"[18]; 48 h, read-out: MIC CK 48h",> 500 µM
same,MIC,"[19]; ATCC204305, 24 h, read-out: MIC AF 24h",> 500 µM
same,MIC,"[19]; ATCC204305, 48 h, read-out: MIC AF 48h",> 500 µM
same,MIC,[20],> 500 µg/mL
same,MIC,"[21]; CCM8363, 24 h, read-out: MIC AFla 24h",> 500 µM
same,MIC,"[21]; CCM8363, 48 h, read-out: MIC AFla 48h",> 500 µM
same,MIC,"[22]; 24 h, read-out: MIC PA 24h",> 500 µM
same,MIC,"[22]; 48 h, read-out: MIC PA 48h",> 500 µM
